Values after ≈ are worked out from the molar mass of the structure shown.
Key:
[1] = system: Staphylococcus aureus 209P; test: Minimum Inhibitory Concentration (M.I.C.), serial agar dilution; type: cell-based; details: Mueller Hinton agar, inoculum 10^6 cells/ml, 37° C., 20 hours
Procedure: (§1) Minimum Inhibitory Concentration (M.I.C.)
(§2) M.I.C. test was conducted by a usual serial agar dilution method, using Mueller Hinton agar (Inoculum: 10^6 cells/ml) which was incubated at 37° C. for 20 hours. M.I.C. value is expressed as the minimum concentration of the Nocardicin E or F (mcg/ml) which inhibits growth of the microorganism.

[2] = system: Bacillus subtilis ATCC6633; test: as above; type: cell-based; details: Mueller Hinton agar, inoculum 10^6 cells/ml, 37° C., 20 hours
Procedure: as §1, §2

[3] = system: Pseudomonas aeruginosa NCTC10490; test: as above; type: cell-based; details: Mueller Hinton agar, inoculum 10^6 cells/ml, 37° C., 20 hours
Procedure: as §1, §2

[4] = system: Escherichia coli NIHJ JC-2; test: as above; type: cell-based; details: NIHJJC2, Mueller Hinton agar, inoculum 10^6 cells/ml, 37° C., 20 hours
Procedure: as §1, §2

Solubility = type: physicochemical
[5] = aqueous alkaline solution (Nocardicin E: e.g. aqueous ammonia, aqueous sodium hydroxide solution)

MIC [1]	MIC [2]	MIC [3]	MIC [4]	Solubility (Solubility; C2 H5 OH)	Solubility (Solubility; CH3 COCH3)	Solubility (Solubility; CH3 COOC2 H5)	Solubility (Solubility; CH3 OH)	Solubility (Solubility; CHCl3)	Solubility (Solubility; [5])	Solubility (Solubility; dimethylsulfoxide)	Solubility (Solubility; pyridine)	SMILES
> 400 µg/mL	> 400 µg/mL	12.5 µg/mL (≈ 31.3 µM)	> 400 µg/mL	Sparingly soluble	Insoluble	Insoluble	Sparingly soluble	Insoluble	Highly soluble	Highly soluble	Highly soluble	O=C(NC1CN(C(C(=O)O)c2ccc(O)cc2)C1=O)/C(=N\O)c1ccc(O)cc1 (stereo not drawn) [Nocardicin E]
> 400 µg/mL	> 400 µg/mL	100 µg/mL (≈ 250 µM)	> 400 µg/mL	Sparing soluble	Insoluble	Insoluble	Sparing soluble	Insoluble	Highly soluble	Highly soluble	Highly soluble	O=C(NC1CN(C(C(=O)O)c2ccc(O)cc2)C1=O)/C(=N/O)c1ccc(O)cc1 (stereo not drawn) [Nocardicin F]

From US4146536A, “Nocardicin E and F, and process for production thereof” (Fujisawa Pharmaceutical Co., Ltd., priority 1975, dated 1979)
